Measurements taken from patent publication US8841317B2 (Emory University, priority 2010, dated 2014).
“Also recorded” adds a separate entry of the source. Where two headings read alike, the source gives them in different places.

What was measured:
[1] = system: THP-1 human macrophages; experiment: TNFα release from TLR ligand-stimulated human macrophages (ELISA); assay type: cell-based; settings: human and murine macrophages; TLR ligands LPS or Pam3CSK4
Method: (§1) TLR ligand concentrations ranging from (LPS: 10-0.31 picomolar (pM) and Pam3CSK4: 10-0.31 μg/ml) and non-TLR ligands (mouse IP-10 and TNFα: 1000-31 pg/ml) were made in duplicate wells using sterile PBS by serial fold dilutions in the 96-well tissue culture plates at 50 μl final volumes. Freshly grown THP-1cells, RAW264.7, ScCr, HEK-TLR2/6 and HEK-TLR4-MD2-CD14 transfected cells each adjusted to 10^6 cell/ml and 250 μl aliquots were dispensed into each well at a final cell density of 250×10^3 in the designated 96-well plates. The plates were then incubated overnight at 37° C. with 5% CO2 and humidity. Supernatants from stimulated cells were harvested and stored at −20° C. until further use.
(§2) Released cytokines TNFα and IL-6 and chemokines CXCL10 (IP-10), MIP-2α and IL-8 were quantified by DuoSet ELISA (R&D Systems, Minneapolis, Minn.) following the manufacturer's instructions as previously described [Zughaier S M, Zimmer S M, Datta A, Carlson R W, Stephens D S (2005) Differential induction of the toll-like receptor 4-MyD88-dependent and -independent signaling pathways by endotoxins. Infect Immun 73: 2940-2950.].

[2] = system: HEK293 cells transfected with TLR2 alone or TLR2/6 receptors; experiment: Pam3CSK4-induced IL-8 release (ELISA); assay type: cell-based, human; settings: no drug = 1400 pg/ml
Method: as §1, §2

[3] = system: RAW 264.7 murine macrophages; experiment: Nitric oxide release from TLR ligand-stimulated murine macrophages (Griess method); assay type: cell-based; settings: TLR ligands LPS or Pam3CSK4
Method: as §1
(§3) Freshly grown adherent RAW 246.7 or 23ScCr (TLR4-deficient) macrophages were scraped by a cell scraper. Harvested cells were washed and re-suspended in Dulbecco's complete media, counted and adjusted to 10^6 cell/ml. […] aliquots were then dispensed into each well at final 250×10^3 cell density in the designated 96-well plates prior to stimulation with TLR ligands or recombinant cytokines as mentioned above. […] Nitric oxide release was quantified using the Griess chemical method as previously described [Zughaier S M, Tzeng Y L, Zimmer S M, Datta A, Carlson R W, et al. (2004) Neisseria meningitidis lipooligosaccharide structure-dependent activation of the macrophage CD14/Toll-like receptor 4 pathway. […]

[4] = doses as high as 300 mg/kg; cited from earlier work
[5] = system: human or murine macrophages; experiment: Cellular viability (trypan blue exclusion, morphology, LDH); assay type: cell-based, human and murine
Method: (§4) Biochim Biophys Acta 887: 13-22.]. […] Cellular aliquots (100 μl) were taken daily and cells were diluted 1:1 with the vital dye trypan blue 0.4% solution (Cellgro, Mediatech Inc, Herndon, Va.) in PBS and viable cells were counted. LDH release into the supernatant was also measured to assess the toxicity of the drugs. […] Cell Microbiol 7: 1251-1262.].

[6] = system: THP-1 cells; experiment: LDH release into supernatant; assay type: cell-based, human; settings: THP-1 cells incubated 48 hr with 50 μM; DMSO control 5 IU/L
Method: as §4

[7] = system: THP-1 cells; experiment: Detection of acidic vesicular organelles (acridine orange); assay type: cell-based, human; settings: 24 hr treatment, acridine orange 1 μg/ml
Method: THP-1 cells were plated on cover slips and allowed to attach. Following treatments for 24 hr with DMSO alone (control), Red-Br-nos, LPS, Red-Br-nos and LPS, cells were stained with 1 μg/ml acridine orange for 15 min, washed with PBS, and examined under a Zeiss fluorescence microscope using a 40× objective lens [Herman-Antosiewicz A, Johnson D E, Singh S V (2006) Sulforaphane causes autophagy to inhibit release of cytochrome C and apoptosis in human prostate cancer cells. Cancer Res 66: 5828-5835.].

[8] = system: human macrophage cells THP-1; experiment: Autophagy by electron microscopy; assay type: cell-based; settings: overnight, LPS 2 pM plus drug 50 μM
Method: Human macrophage cells were fixed for 1 hr with 2% glutaraldehyde in 0.1M sodium cacodylate buffer, rinsed in the same buffer and the post-fixed with 2% osmium tetroxide in the same buffer for 1 hr at room temperature. The samples were then dehydrated with a graded ethanol series through 3×100%, 2× in propylene oxide and embedded in Spurr's resin. Sections were stained with 1% uranyl acetate and lead citrate. Electron microscopy imaging was then performed at a magnification of 3597×.

[9] = system: THP-1 macrophages; experiment: Respiratory burst ROS release (lucigenin chemiluminescence); assay type: cell-based, human
Method: The enhanced chemiluminescence method was used as previously described [Zughaier S M, Ryley H C, Jackson S K (1999) A melanin pigment purified from an epidemic strain of Burkholderia cepacia attenuates monocyte respiratory burst activity by scavenging superoxide anion. Infect Immun 67: 908-913.]. Briefly, freshly grown THP-1 cells were adjusted to 2×10^6/ml, transferred to two large tissue culture flasks labeled as primed or unstimulated. Two pmole/ml LPS were added to prime cells or left unstimulated as control cells. Both flasks were incubated overnight at 37° C. under 5% CO2. […] The cells were collected in universal tubes, washed twice with culture medium and resuspended in standard buffer (4.58 mM KH2PO4, 8.03 mM NaHPO4, 0.5 mM MgCl2, 0.45 mM CaCl2, 1% (w/v) glucose, 0.033% (w/v) KCl, 0.76% (w/v) NaCl and 0.1% (w/v) endotoxin-free bovine serum albumin (pH 7.3) at 2×10^6/ml. The chemiluminescence probe lucigenin (Sigma) was added to the cell suspension (25 μl/ml of cells from 1.0 mM stock solution) and mixed gently. Aliquots (150 μl) of the cellular mixture were transferred into at least quadruplicate wells of a white 96-well plate (FluoroNunc-PolySorp; Nalge Nunc International, Rochester, N.Y.). The respiratory burst was triggered with 50 μl of PMA (1 μM). Chemiluminescence was measured in relative light units (a measure of the number of photons generated by the reaction at each time point). Chemiluminescence was measured using a luminometer (ML3000, Dynatech Laboratories Inc. Chantilly, Va.) and the plate was read immediately and then at 2 min intervals for the next 90 min [Zughaier S M, Ryley H C, Jackson S K (1999) A melanin pigment purified from an epidemic strain of Burkholderia cepacia attenuates monocyte respiratory burst activity by scavenging superoxide anion. Infect Immun 67: 908-9131.

[10] = system: ScCr (TLR4-deficient) cells; experiment: Sterile inflammation: nitric oxide release after murine TNFα stimulation; assay type: cell-based; settings: 50 μM for 1 hr or overnight, then murine TNFα 1000-31.2 pg/ml
Method: as §1, §3

[11] = system: RAW264 (TLR4-sufficient) cells; experiment: Sterile inflammation: nitric oxide release after murine IP-10 (CXCL10) stimulation; assay type: cell-based; settings: 50 μM for 1 hr or overnight, then murine IP-10 1000-31.2 pg/ml
Method: as §1, §3

LDH release [6] [IU/L]	SMILES	TLR-mediated TNFα release [1]	IL-8 release [2] [pg/mL]	TLR-mediated nitric oxide (NO) release [3]	toxicity [4]	cellular toxicity / viability ([5]; human and murine macrophages)	acidic vesicular organelles (AVOs) [7]	cellular toxicity / viability [5]	autophagy-related vacuolation (electron micrographs) [8]	ROS release, LPS primed cells ([9]; 50 μM added just prior to PMA-triggered respiratory burst)	ROS release, unprimed macrophages ([9]; 50 μM added just prior to respiratory burst)	ROS release, primed macrophages ([9]; added 2 hr prior to triggering the respiratory burst)	nitric oxide release versus no drug [10]	nitric oxide release versus no drug [11]
10	COc1ccc2c(c1OC)CO[C@@H]2[C@H]1c2c(c(Br)c3c(c2OC)OCO3)CCN1C [Red-Br-nos, (R)-9-bromo-5-((S)-4,5-dimethoxy-1,3-dihydroisobenzofuran-1-yl)-4-methoxy-6-methyl-5,6,7,8-tetrahydro-[1,3]di-oxolo-[4,5-g]isoquinoline]	dampened	400	dampened	non-toxic		confirmed the drug-induced autophagic activity; also recorded: formation (red fluorescence) of acridine orange-accumulating acidic vesicular organelles (AVOs)	without evidence of cellular toxicity	increased vacuolation in the cytoplasm					
7	COc1ccc2c(c1OC)C(=O)O[C@@H]2[C@H]1c2c(cc3c(c2OC)OCO3)CCN1C [noscapine, (S)-6,7-dimethoxy-3-((R)-4-methoxy-6-methyl-5,6,7,8-tetrahydro[1,3]-dioxolo-[4,5-g]isoquinolin-5-yl)isobenzo-furan-1(3H)-one]					did not induce inflammatory responses or impair cellular viability				enhanced ROS release	not in unprimed macrophages	no change in ROS release	not significant	not significant

SMILES	LDH release [6] [IU/L]	TLR-mediated TNFα release [1]	IL-8 release [2] [pg/mL]	TLR-mediated nitric oxide (NO) release [3]	toxicity [4]	cellular toxicity / viability ([5]; human and murine macrophages)	acidic vesicular organelles (AVOs) [7]	cellular toxicity / viability [5]	autophagy-related vacuolation (electron micrographs) [8]	ROS release, LPS primed cells ([9]; 50 μM added just prior to PMA-triggered respiratory burst)	ROS release, unprimed macrophages ([9]; 50 μM added just prior to respiratory burst)	ROS release, primed macrophages ([9]; added 2 hr prior to triggering the respiratory burst)	nitric oxide release versus no drug [10]	nitric oxide release versus no drug [11]
COc1ccc2c(c1OC)C(=O)O[C@@H]2[C@H]1c2c(c(Br)c3c(c2OC)OCO3)CCN1C [Br-nos, (S)-3-((R)-9-bromo-4-methoxy-6-methyl-5,6,7,8-tetrahydro-[1,3]dioxolo[4,5-g]isoquinolin-5-yl)-6,7-dimethoxyiso-benzofuran-1(3H)-one]	8	dampened	650	dampened	non-toxic	without evidence of cellular toxicity								
